Our source for the melting point values is a melting point compilation (Tetko et al.; mined from patent text by program, amines drawn as free bases though some values may be those of a salt).

SMILES strings stand for the structures. A value given as a limit tells only on which side of the number the result lay.

Usually melting point stands for the temperature of the solid-liquid transition. Take `Cc1ccc(Nc2nnc(-c3cccc(OCc4ccccc4)c3)s2)cc1Cl`: the melting point lay in the range of 211 to 212 °C.

With `COc1cccc(/C(=C/C=C/C(=O)O)c2cccc(F)c2)c1`, the melting point is 151 to 153 °C.

`CCC(=O)N1CCN(C(=O)Cl)CC1` gave a melting point of 45 °C.

Regarding `NS(=O)(=O)c1c(Cl)cccc1-c1ccccc1`, the melting point is 185 to 187 °C.

With `CCCCCCN(O)CCCCCC`, the melting point turned out to be 67 °C.

Compound `CC1(O)CCC2(C)C(CCC3C2CCC2(C)C(c4cc(CO)on4)CCC32)C1` (stereo not drawn) registered a melting point of 198 to 200 °C.

As for `COC(=O)c1ccc(O)c(I)c1`, the melting point fell in the range of 145 to 146 °C.

Take `Cc1ccc(S(=O)(=O)OCC2(CO)OC(n3ccc(=O)[nH]c3=O)C(O)C2O)cc1` (stereo not drawn): the melting point lay within 119 to 120 °C.

`CC(C)CNC(=O)COC1c2ccccc2C(=O)N1c1ccc2ccc(Cl)nc2n1` (stereo not drawn): the melting point stood at 146 °C.

`Nc1ncc2c(n1)CCC(CNC(=O)[C@@H]1CCCN1C(=O)[C@@H](Cc1ccccc1)NS(=O)(=O)Cc1ccccc1)C2` (stereo partly drawn): the melting point fell in the range of 118 to 121 °C.

In the case of `CCOC(=O)c1cnn(-c2ccc(C=O)cc2)n1`, the melting point is 126 to 129 °C.

`CS(=O)(=O)N(Cc1cccnc1)Cc1ccc(Cl)cc1Cl`: the melting point lay within 78 to 80 °C.

With `COc1cc(NC(C)=O)c(Cl)cc1-c1nn(-c2ccc(C(F)(F)F)cc2)c(=O)o1`, the melting point fell in the range of 235 to 236 °C.

`O=C(Nc1ccc(C[C@H](NS(=O)(=O)N2CCSCC2)C(=O)O)cc1)c1c(Cl)cncc1Cl` came in with a melting point of 173 °C.

For the compound `COc1cc2c(cc1Nc1ncc(Cl)c(Nc3ccccc3S(=O)(=O)N(C)C)n1)CCN(CCS(C)(=O)=O)CC2`, the melting point lay within 84 to 101 °C.

Compound `O=[N+]([O-])C=C1CN=C(c2ccccc2Cl)c2cc(Cl)ccc2N1` yielded a melting point of 182 to 185 °C.

Turning to `O=S1(=O)N=C(NCC2CCCCC2)Nc2cc(Cl)ccc21`, the melting point lay within 317 to 323 °C.

`Cc1cnc2c(c1)COP(=S)(OC(C)C)O2` (stereo not drawn) returned a melting point of 96 to 98 °C.

As for `CC(C)(COc1nn2ccnc2c2c1CCCC2)CS(N)(=O)=O`, the melting point lay within 198 to 200 °C.

Consider `CN(CCc1c[nH]c2ccc(CNS(C)(=O)=O)cc12)C(=O)OCc1ccccc1`, for which the melting point was 118 to 120 °C.

The compound `N#Cc1ccc(-c2cc3c(n2-c2ccc(O)c(C(=O)O)c2)CCCC3)cc1` came in with a melting point of 242 to 244 °C.

`CN(C)c1ccc(C2OC(C)(C)N=C2c2cccc(Cl)c2)cc1` (stereo not drawn) yielded a melting point of 96 to 97 °C.

Turning to `O=C1OC[C@@H](CO)N1c1nc(-c2ccc(Br)cc2)cs1`, the melting point lay within 189 to 192 °C.

Regarding `O=C(O)/C(=C/c1ccccc1)CSC(=O)c1ccccc1`, the melting point worked out at 160 °C.

Turning to `Cc1cccc(-c2ccc3c(c2)c(C(=O)C(=O)NCC(=O)O)cn3Cc2ccc(C(C)(C)C)cc2)c1`, the melting point was 108 to 109 °C.

In turn, `NC(=O)N1C(=O)C(C(=O)c2sccc2Br)c2cc(Cl)ccc21` (stereo not drawn) registered a melting point of 216 to 217 °C.

As for `COC(=O)C(C)(C)C(=O)Oc1ccc(C(=O)c2ccccc2)cc1`, the melting point is 121 to 122 °C.

The compound `CCS(=O)(=O)c1ccc(-c2cnn(-c3cccc(Cl)c3)c(=O)c2C2CCCCC2)cc1` registered a melting point of 85 to 90 °C.

For the compound `COc1ccc2c(ccn2CC2(c3ccccc3Br)OCCO2)n1`, the melting point was in the range of 143 to 144 °C.

Take `O=C(Nc1cccc(S(=O)(=O)N2CCOCC2)c1)c1cnn2c(C(F)(F)F)cc(-c3ccc(C(F)(F)F)cc3)nc12`: the melting point was 233 °C.

In the case of `CC(=O)C1CCC2C3CCC4CC(OC(=O)OCC(Cl)(Cl)Cl)CCC4(C)C3C(NC(=O)OCC(Cl)(Cl)Cl)CC12C` (stereo not drawn), the melting point lay within 174 to 176 °C.

In turn, `COc1cc2c(Oc3ccc(Cl)cc3F)ncnc2cc1OCc1ccncc1` yielded a melting point of 197 to 198 °C.

The compound `COc1ccc(OC)c(C(=O)c2cccc([N+](=O)[O-])c2)c1` returned a melting point of 98 °C.

As for `COC(=O)c1ccccc1OCC(O)CNC(C)(C)CNC(N)=O` (stereo not drawn), the melting point worked out at 62 °C.

As for `CCCC1(CC(=O)O)OC=CC2=C1NC1=C3CCCCC3CCC21` (stereo not drawn), the melting point is 78 to 80 °C.

`CCOC(=O)c1cc2cc(Oc3ccc(S(C)(=O)=O)cc3)cc(OC)c2[nH]1`: the melting point was in the range of 161 to 162 °C.

With `Cc1cc(I)c(C(N)=O)cc1C`, the melting point lay within 195 to 197 °C.

On to `O=S(=O)(Nc1ccc2[nH]ncc2c1)C1CCNCC1`, for which the melting point is 120 to 123 °C.

With `COc1cccc(CCS(=O)c2nc3cnccc3[nH]2)c1` (stereo not drawn), the melting point lay in the range of 125 to 128 °C.

On to `O=C(CCn1cnc2c(=O)[nH]cnc21)NCCO`, for which the melting point was in the range of 225 to 229 °C.

Compound `O=Cc1cc(N2CCN(Cc3ccccc3)CC2)ccc1O` had a melting point of 101 to 103 °C.

For the compound `COc1ccc(OC)c(C2(Cl)C(=O)Nc3ccc(Cl)cc32)c1` (stereo not drawn), the melting point came out at 157 °C.

Compound `COc1cc(C(O)(C(F)(F)F)C(F)(F)F)cc(C)c1OCC(=O)O` showed a melting point of 111 to 113 °C.

For the compound `CC(C)S(=O)(=O)c1nc(OS(C)(=O)=O)cs1`, the melting point fell in the range of 56.5 to 58.5 °C.

Compound `Cc1nc(Cl)c2c(C)cn(-c3c(Cl)cc(Br)cc3Br)c2n1` registered a melting point of 157 to 159 °C.

On to `CC(O)(CCF)c1ccc(-c2ccc(F)cc2)cc1` (stereo not drawn), for which the melting point lay in the range of 90 to 92 °C.

Compound `CCOC(=O)C(Cc1c(Br)c(OC)c(OC)c(OC)c1OC)(C(=O)OCC)c1ccc(OCc2ccccc2)cc1` showed a melting point of 93 to 94 °C.

Take `CC(C)c1ccc(S(=O)(=O)c2ccccc2)cc1S(=O)(=O)NC1CCN(C(=O)c2ccccc2F)CC1`: the melting point was 210 to 212 °C.

In turn, `CCOC(=O)C1CC(O)CN1C(=O)c1ccc(OC)cc1` (stereo not drawn) registered a melting point of 64 °C.

Consider `CCc1c(C(=O)c2cc(C)cc(C#N)c2)[nH]c(=O)[nH]c1=O`, for which the melting point was 253 to 254 °C.

With `Cc1n[nH]c2cc(-c3ccc4nnn(Cc5ccc6ncccc6c5)c4n3)ccc12`, the melting point was 136 to 137 °C.

Take `CC(C)c1nc2cc(COc3ccc(CCCn4ccnc4)cc3)ccc2o1`: the melting point was in the range of 76 to 77 °C.

`COCc1ccc2nc(SCCN3CCN(CC(=O)Nc4c(C(C)C)cccc4C(C)C)CC3)oc2c1COC` had a melting point of 96 to 97 °C.

`CCCCCCCCCCCCCCOc1cccc(C(=O)N(CC(=O)OC)CC(=O)OC)c1` registered a melting point below 23 °C.

The compound `CCOC(=O)C1=C(C)Nc2nnnn2C1c1cccc([N+](=O)[O-])c1` (stereo not drawn) came in with a melting point of 210 to 212 °C.

Take `COc1cccc2c1CCCC2=NNc1nc(-c2ccc(Cl)cc2Cl)cs1`: the melting point is 200 °C.

In the case of `CCCc1cc(C(=O)NCCC(=O)O)ccc1OC(C(=O)NS(=O)(=O)c1ccc(C(C)C)cc1)c1ccc2c(c1)OCO2` (stereo not drawn), the melting point was in the range of 199 to 201 °C.

On to `Cc1nn(CCCCO)c(-c2ccc(F)cc2)c1-c1ccc2c(c1)NC(=O)CO2`, for which the melting point was in the range of 194 to 196 °C.

Consider `O=C(O)CCCC1=C(n2nc(-c3c(-c4ccccc4)nn4ccccc34)ccc2=O)CCCC1`, for which the melting point lay within 145 to 147 °C.

`CNC(=O)c1ccccc1Nc1nc(Nc2cc3c(cc2OC)C(=O)N(C)CCC3)ncc1Cl`: the melting point is 152 to 154 °C.

`O=[N+]([O-])c1ccc2[nH]c(/C=C/c3ccoc3)nc2c1` displayed a melting point of 230 to 233 °C.

Consider `CC(=O)Nc1c(C(=O)c2cc(CO)ccn2)[nH]c2cc(Cl)ccc12`, for which the melting point is 216 to 218 °C.

Compound `COC(=O)C1=C(C)Nc2nc(N3CCOCC3)nc(N3CCOCC3)c2C1c1ccc([N+](=O)[O-])cc1` (stereo not drawn) registered a melting point of 236 °C.

In turn, `COc1cc2c(cc1OC)C(C(COC(=O)Nc1ccccc1)COC(=O)Nc1ccccc1)N(Cc1ccccc1)CC2` (stereo not drawn) had a melting point of 185 °C.

`CCOC(=O)Cc1c([N+](=O)[O-])cc(OCc2ccccc2)c2ccccc12` came in with a melting point of 128 to 130 °C.

With `CCOC(=O)c1c(SC)nn(-c2c(Cl)cc(Cl)cc2Cl)c1C`, the melting point was 95 to 98 °C.

In turn, `COc1ccc(N(C)CC2CCOCC2)cc1N` returned a melting point of 97 to 99 °C.

As for `Cc1ccc([N+](=O)[O-])cc1S(=O)(=O)n1c(Br)nc(Br)c1C`, the melting point is 187 to 189 °C.

In turn, `O=[N+]([O-])c1cccc(/C=C/c2nc(C3CCCCC3)cs2)c1` yielded a melting point of 102 to 104 °C.

`CC(=O)Nc1ccc(S(=O)(=O)Nc2cccc(N(C)C(C)=O)c2)cc1` gave a melting point of 258 to 260 °C.

Take `O=C(O)c1ccc(-c2ccc(Cl)cc2)nc1`: the melting point is above 260 °C.

In turn, `O=C(/C=C/c1ccc(C(=O)O)s1)NOC1CCCCO1` (stereo not drawn) gave a melting point of 177 °C.

Compound `Cc1ccc(S(=O)(=O)NCC(=O)c2ccccc2)cc1` had a melting point of 148 to 149 °C.

With `O=[N+]([O-])c1cnc2ccc(Cl)cc2c1Nc1ccccc1`, the melting point fell in the range of 174 to 175 °C.

As for `CCCOc1ccccc1-c1nc2n(C3CCCC3)[nH]c(C)c-2c(=O)n1`, the melting point is 130 to 132 °C.

`COc1ccnc(CCc2nc3cc(-c4ccsc4)cnc3[nH]2)c1` yielded a melting point of 154 to 155 °C.

With `NC(=O)N1c2ccccc2C=C(Br)c2ccccc21`, the melting point was 168 to 170 °C.

Take `COc1cccc(CNc2n[nH]c(N)c2C#N)c1`: the melting point was 151 to 153 °C.

Consider `CC(C)(C)OC(=O)NC(C(=O)Nc1n[nH]c(=S)s1)c1ccccc1` (stereo not drawn), for which the melting point was in the range of 194 to 195 °C.

For `COc1ccc(-c2cn(C)cc(-c3cccc(C(F)(F)F)c3)c2=O)cc1`, the melting point lay within 160 to 162 °C.

Turning to `O=C(NCc1ccccc1)c1ccccc1I`, the melting point was 122 to 123 °C.

`CNC(=O)Nc1snc(N(C)C)c1C(N)=O`: the melting point worked out at 221 °C.

On to `COc1cc(OC)nc(NC(=O)NS(=O)(=O)c2ccccc2CO)n1`, for which the melting point is 149 to 150 °C.

For the compound `CCOC(=O)c1oc2ccccc2c1N=CN(C)C`, the melting point is 89 to 90 °C.

With `OCC1(CO)CC(Cc2ccc(F)cc2)=NO1`, the melting point fell in the range of 93 to 97 °C.

`CC(C)(C)c1ccc2[nH]c(=O)c(-c3nnn[nH]3)cc2c1` gave a melting point of 280 to 286 °C.

`O=[N+]([O-])c1ccc(Oc2ccc(C3(c4ccc(Oc5ccc([N+](=O)[O-])cc5)cc4)CCC(c4ccccc4)CC3)cc2)cc1` showed a melting point of 216 to 218 °C.

In the case of `O=C1c2cc3c(cc2-c2c1c(Cl)nc1ccccc21)OCO3`, the melting point lay within 265 to 270 °C.
